Converted amounts (≈) assume the structure as drawn.

Experiment [1] deals with T1, Rac1 (Homo sapiens, UniProt P63000).
T1 construct: GST (cleaved yes); made in house; host or cells: E. coli
In words: Tiam1-catalyzed guanine nucleotide exchange of Rac1. Format: biochemical. Particulars: in the presence of Tiam1; read-out: IC50, Rac1 guanine nucleotide exchange reaction. The procedure:
Rac1 was expressed in E. coli as a GST fusion protein using the vector pGEX2T in accordance with previously described methods [Self and Hall, Meth. Enzymol. 256:3 (1995)]. Purified thrombin-cleaved Rac1 protein was used in the assay.
The Tiam1 DH-PH domain expressed as a fusion protein containing a carboxy terminal 6XHis tag using the plasmid pET28a described by Rossman and Campbell, Meth. Enzymol. 325:25 (2000).
The Tiam1-catalyzed exchange of GDP for GTP of Rac1 was carried out essentially according to the procedure described by Crompton et al., J. Biol.Chem. 275(33):25751 (2000). GDP-bound Rac1 was incubated with [α^32P]-labeled GTP, in the presence of Tiam1 and nucleotide exchange was monitored by following the increase in radioactivity bound to Rac1. Free radioactivity was removed by placing the reaction mixture in the well of a 96-well plate and filtering out the fraction of [α^32P]GTP that is not bound to Rac1. During the screen for the nucleotide exchange antagonists, the compounds were used at 10 μM concentration. The compounds analyzed by the screening methods are further described below.
Compounds that inhibit the Rac1 guanine nucleotide exchange reaction by at least 50% of the control were obtained. The IC50 value of several of the compounds were determined for the guanine nucleotide exchange reaction of Rac1, in the presence of Tiam1.

For experiment [2], the target named is T2, CD11b/CD18 (Homo sapiens, UniProt P11215).
T2 construct: expressed in transfected cells; host or cells: JY (human B lymphoblastoid) cells
Nature of the experiment: Adhesion of JY/CD11b cells to immobilized iC3b. Format: cell-based. Particulars: dose-dependent; relative to control DMSO treatment. The method, then:
B. Adhesion Assay of JY/CD11b Cells to Immobilized iC3b
Briefly, each well of a 96-well plate was coated overnight at 4° C. with 50 μl glycophorin (10 μg/ml), iC3b (5 μg/ml) or with anti-CD18 monoclonal antibody (22F12C, 5 μg/ml) and anti-CD11b monoclonal antibody (44AACB, 5 µg/ml) in bicarbonate buffer (pH 9.6). Plates were blocked with human serum albumin in D-PBS for one hr at room temperature. JY cells transfected with CD11b (JY/CD11b cells) (100 μl at 1×10^6 cells/ml) in adhesion buffer were added to each well and incubation was carried out at 37° C. for 30 min. Plates were fixed and analyzed as described above in Example 1. Percentage of cells binding was determined using the equation below. [formula]
Data was normalized using the formula: [formula]

The target in experiment [3] is T3, ftsZ (Escherichia coli, UniProt P0A9A6). In words: ftsZ GTPase assay. Format: biochemical. The method, then: An alternative assay that may be more sensitive was also devised. In this assay, 100 μg/ml ftsZ was incubated with 0.5 μM ^32P-γ-GTP. The GTPase activity of ftsZ liberates ^32PO4. By terminating the reaction with 25 mg/ml activated charcoal in 100 mM NaH2PO4 and centrifuging the product, the remaining ^32P-γ-GTP is trapped by the charcoal. Accordingly, the ^32PO4 that remains in the supernatant can be measured, providing a measurement of GTPase inhibition.

Experiment [4] has as its target T3, ftsZ. In words: ftsZ polymerization assay. It is filed as biochemical. Particulars: read-out: IC50, ftsZ polymerization screen. The method, then: A polymerization assay for the identification of ftsZ inhibitors that can be performed in microtiter wells has been devised. The polymerization assay is an adaptation of a tubulin polymerization assay [Bollag et al., Cancer Research 55:2325-2333 (1995)], and involves the reversible polymerization of ftsz in a GTP-dependent fashion.
In the presence of GTP and 10 mM CaCl2, 5 nm ftsZ linear polymers assemble into higher order polymers [Yu et al., EMBO 16:5455-5463 (1997)] that are large enough to be trapped by a 0.2 μm filter. The protein that is retained on the filter can be stained and detected in a colorimetric assay. A reaction consisting of 300 μg/ml of ftsZ polymerized by 100 μM GTP was screened against candidate ftsZ inhibitors at 10 μM.

Experiment [5] concerns permeable tolC strain (plasmid only). In words: microbe, parasite or virus in culture. The note with it: Escherichia coli, read-out: MIC, control strain. It is filed as cell-based, E. coli. The method, then: (§1) A permeable bacteria] strain (AB734 TN10::tolC) was used in the screening method to maximize the ability of the compounds to cross the gram negative cell wall. Assays were conducted in accordance with the NCCLS protocols referenced herein.
(§2) It was of further interest to determine whether those compounds with antimicrobial activity worked in a ENR-dependent fashion. Two strains of the permeable tolC strain were constructed. In the first strain, the ENR protein was overexpressed by placing it under control of its own promoter on a moderate copy number plasmid, and the second strain served as a control including only the plasmid.

Experiment [6] concerns permeable tolC strain overexpressing ENR. In words: microbe, parasite or virus in culture. It is filed as cell-based, E. coli. The note with it: Escherichia coli, read-out: MIC, ENR-overexpressing strain. The procedure:
as §1, §2

T3 sequence (P0A9A6 whole entry): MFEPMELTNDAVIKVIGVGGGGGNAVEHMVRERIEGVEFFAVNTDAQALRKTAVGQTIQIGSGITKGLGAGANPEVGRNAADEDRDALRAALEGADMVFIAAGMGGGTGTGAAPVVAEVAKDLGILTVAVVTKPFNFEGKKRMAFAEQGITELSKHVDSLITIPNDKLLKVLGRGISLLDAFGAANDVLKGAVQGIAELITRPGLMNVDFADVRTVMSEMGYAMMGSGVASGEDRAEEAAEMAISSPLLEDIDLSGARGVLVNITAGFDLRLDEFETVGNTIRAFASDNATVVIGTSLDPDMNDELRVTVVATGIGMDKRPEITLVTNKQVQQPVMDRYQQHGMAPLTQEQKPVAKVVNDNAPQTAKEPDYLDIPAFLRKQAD

The term IC50 denotes the midpoint of a concentration-inhibition curve. With `CSc1ccc(-c2ccnc(N3CCC(C)CC3)c2)cc1C(C)(F)F` [Cmpd AAA], the half-inhibitory concentration (IC50) in experiment [1] amounted to 3.5 µM.

In the case of `CC(C)Sc1ccc(-c2ccnc(N3CCCC(C)(C)C3)c2)cc1C(F)(F)F` [Cmpd AAB], the IC50 in experiment [1] is 4.7 µM.

For `CC(C)Sc1ccc(-c2ccnc(N3CCC(NC(=O)OC(C)(C)C)CC3)c2)cc1C(F)(F)F` [Cmpd AAC], the IC50 in experiment [1] was 5 µM.

For `CN(CCCNCc1ccccc1Sc1c(Cl)cccc1Cl)c1ccccc1` [Cmpd AY], the 50% inhibitory concentration (IC50) in experiment [1] worked out at 1.9 µM.

Take `CN(CCCNCc1ccccc1Sc1cc(Cl)cc(Cl)c1)c1ccccc1` [Cmpd AZ]: in experiment [1], the half-maximal inhibitory concentration (IC50) stood at 3.1 µM.

Take `O=[N+]([O-])c1cc(Cl)c(Sc2ccc(Cl)cc2Cl)cc1F` [Cmpd C]: the “stimulation of CD11b/CD18 binding to iC3b” value (“stimulation” below) in experiment [2] was “two times”.

With `CCCCC(CCCC)N(C(=O)CN1CC(c2ccc3c(c2)OCO3)C(C)C1C(C)(C)CCCC)c1ccc(F)c(C)c1` (stereo not drawn) [Cmpd H], the “stimulation” value in experiment [2] is “two times”.

For `CCCCC(CCCC)N(C(=O)CN1CC(c2ccc3ccccc3c2)C(C(=O)O)C1c1ccc(OC)cc1)c1ccc(F)c(C)c1` (stereo not drawn) [Cmpd I], in experiment [2], the “stimulation” value is on record as “two times”.

Regarding `Nc1nc2c(ncn2[C@@H]2O[C@H](COP(=O)(O)OP(=O)(O)O)[C@@H](O)[C@H]2O)c(=O)[nH]1` [GDP], the half-inhibitory concentration (IC50) in experiment [3] came to 8 µM; in experiment [4] it was 250 µM.

In the case of `Oc1cc(Cl)ccc1Oc1ccc(Cl)cc1Cl` [triclosan], the MIC in experiment [5] is 0.031 µg/mL (≈ 0.107 µM); in experiment [6], 1 µg/mL (≈ 3.45 µM).

Source of the values: patent US20030088061A1, “Materials and methods to modulate ligand binding/enzymatic activity of alpha/beta proteins containing an allosteric regulatory site” (priority 2000, published 2003).
